Some results are limits rather than exact numbers.

The test system of this test is Staphylococcus aureus. The experiment in a line: Aggregation of fluorescently labelled microorganisms, MAC (Example 1). Type of test: cell-based. How it is done: Microbial cells were fluorescently labelled with fluorescein isothiocyanate (FITC, Sigma-Aldrich, St Louis, MO, USA) or SYTO™ 24 green fluorescent nucleic acid stain (Thermo Fisher, Rockford, IL, USA). FITC labelling was performed by incubation in a 0.2 M NaHCO3 pH 9.5 buffer with a final concentration of 0.2 mg/ml FITC (from a 2 mg/ml FITC stock in DMSO) and shaking for 1 hour at 37° C. and subsequently extensively washing with phosphate buffered saline (PBS). SYTO-24 labelling was performed in PBS using a final 1 μM concentration of the dye for at least 30 minutes and subsequently washing with PBS. […] Aggregation was examined immediately or at a more convenient moment using a fluorescence microscope. […]
The Minimal Aggregation Concentration (MAC), the lowest concentration of polysaccharides still convincingly showing microbial aggregation, was determined by 2-fold serial dilutions and expressed in mg or microgram polysaccharides/ml. […] Quantification of samples was based on dry weight determination unless otherwise indicated.
10× concentrated Aloe vera leaf juice, a 10× decolorized liquid made from purified inner leaf fillet that contained not less than 10% polysaccharides, was purchased at a commercial supplier (ACTIValoe® Aloe vera Gel 10X-D, AloeCorp, Harlingen, TX, USA). […] The Minimal Aggregation Concentration (MAC) of the >12 kDa fraction was determined and compared to that of D-mannose.

`O=C[C@@H](O)[C@@H](O)[C@H](O)[C@H](O)CO` [D-mannose] came in with an MAC (Minimal Aggregation Concentration towards Staphylococcus aureus, mg polysaccharides/ml) above 16 mg/mL. Besides, the aggregating activity result (highest concentration tested (16 mg/ml)) is recorded as “did not have aggregating activity”.

The values above are taken from patent US12589130B2, “Aloe extracts for microbial neutralisation” (2QR RESEARCH B.V., priority 2020, dated 2026).
